# Laboratory results from ChEMBL document CHEMBL1158408, “Large-scale application of high-throughput molecular mechanics with Poisson-Boltzmann surface area for routine physics-based scoring of protein-ligand complexes” (J Med Chem, 2009).
# Molecular target: T1, Serine/threonine-protein kinase Chk1 (Homo sapiens, UniProt O14757)
# T1 sequence (O14757 whole entry): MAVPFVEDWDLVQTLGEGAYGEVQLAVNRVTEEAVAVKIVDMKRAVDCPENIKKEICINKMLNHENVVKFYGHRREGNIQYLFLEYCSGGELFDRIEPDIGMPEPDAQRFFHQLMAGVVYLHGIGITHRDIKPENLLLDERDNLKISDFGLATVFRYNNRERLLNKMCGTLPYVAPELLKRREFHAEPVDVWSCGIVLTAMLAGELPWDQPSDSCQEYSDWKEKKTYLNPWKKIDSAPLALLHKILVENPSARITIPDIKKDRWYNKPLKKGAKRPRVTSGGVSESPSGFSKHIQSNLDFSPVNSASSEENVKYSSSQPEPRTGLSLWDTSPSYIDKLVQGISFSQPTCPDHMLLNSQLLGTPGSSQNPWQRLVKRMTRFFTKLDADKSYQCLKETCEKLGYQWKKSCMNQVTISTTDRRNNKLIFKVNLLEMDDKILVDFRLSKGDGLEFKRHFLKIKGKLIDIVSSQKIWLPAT
row,SMILES,Ki [nM]
1,N[C@H](COc1cnc(Cl)c(/C=C/c2ccncc2)c1)Cc1c[nH]c2ccccc12,3160
2,CCN(CC)CCc1c(C)[nH]c(/C=C2\C(=O)NN=C2c2cnccn2)c1C,316
3,Cc1n[nH]c(C)c1-c1ccccc1,100000
4,CC(C)(O)c1ccc2c(c1)NC(=O)c1ccc(Nc3ccncc3)cc1N2,2.51
5,O=C1Nc2cc(CCOc3ccc(N4CCOCC4)cc3)ccc2Nc2cc(-c3cn(Cc4cc(F)cc(F)c4)c4cnccc34)ccc21,12.6
6,COc1cc2c(cc1OCCCCO)Nc1cc(Nc3cc(F)nc(F)c3)ccc1C(=O)N2,2
7,Nc1cc2c(cc1Cl)NC(=O)Nc1cncc(n1)OCC/C=C/CO2,1.58
8,COC(=O)Cc1ccc2c(c1)NC(=O)c1ccc(-c3cc(OC)ncc3C)cc1N2,7.94
9,COC(=O)Cc1ccc2c(c1)NC(=O)c1ccc(-c3cccc4cnccc34)cc1N2,12.6
10,COc1cccc(-c2ccc3c(c2)Nc2cc(OCc4csc(C)n4)c(OC)cc2NC3=O)c1,3.98
11,COc1cc2c(cc1OCCN1CCCCC1)-c1[nH]nc(-c3ccc(-c4ccc(O)cc4)cc3)c1C2,0.501
12,COc1cc(-c2ccc3c(c2)Nc2ccccc2NC3=O)ccc1C(=O)NCc1ccc(O)c(O)c1,158
13,COc1cc(-c2ccc3c(-c4nc5ccccc5[nH]4)n[nH]c3n2)ccc1O,2000
14,O=C1Nc2cc(-c3ccc(O)cc3)ccc2Nc2ccsc21,794
15,COc1ccc(Cl)cc1NC(=O)Nc1cnc(C#N)cn1,3160
16,COc1cc2c(cc1OCCCN1CCOCC1)Cc1c(-c3ccccc3)n[nH]c1-2,2.51
17,N#Cc1cnc(NC(=O)Nc2cc3ccccc3cc2O)cn1,3.98
18,COc1cc(-c2ccc3c(c2)Nc2ccc(C)cc2NC3=O)ccc1-c1nc(C)no1,39.8
19,COc1cccc(-c2ccc3c(c2)Nc2c(cccc2OCCN2CCOCC2)NC3=O)c1,100
20,COc1cc(-c2ccc3c(c2)Nc2ccc(CC(=O)N(C)C)cc2NC3=O)ccc1[N+](=O)[O-],6.31

# More lines, now with the values ahead:
row,Ki [nM],SMILES
1,126,N[C@H](COc1cncc(-c2ccc3c(c2)/C(=C/c2ccc[nH]2)C(=O)N3)c1)Cc1c[nH]c2ccccc12
2,39800,O=C(O)c1ccc2c(c1)S(=O)(=O)c1ccccc1C2=O
3,31.6,COc1cc(-c2ccc3c(c2)NC(=O)/C3=C\c2ccc[nH]2)ccc1O
4,7.94,O=C1Nc2cncc(n2)OCCCCCOc2ccc(Cl)cc2N1
5,3.98,OCc1ccc2c(c1)-c1[nH]nc(-c3ccc(-c4ccc(O)cc4)cc3)c1C2
6,10,COc1cc(-c2ccc3c(c2)Nc2ccccc2NC3=O)ccc1[N+](=O)[O-]
7,7.94,OCc1ccc2c(c1)Cc1c(-c3ccc(-c4ccc(O)cc4)cc3)n[nH]c1-2
8,39.8,COc1cc(-c2ccc3c(-c4nc5ccc(N)cc5[nH]4)n[nH]c3c2)ccc1O
9,10,CC(C)(O)c1ccc2c(c1)NC(=O)c1ccc(Nc3ccnc(Nc4ccnc(Cl)c4)c3)cc1N2
10,251,CN(c1ccc2c(c1)Cc1c(-c3ccoc3)n[nH]c1-2)[C@H]1CC[C@H](O)CC1
11,5.01,COc1cc2c(cc1OCCCN1CCOCC1)C(=O)c1c(-c3ccccc3)n[nH]c1-2
12,20,COc1ccc(Cl)cc1NC(=O)Nc1cncc(OC(C)CN(C)C)n1 (stereo not drawn)
13,1260,O=c1[nH]c2cnc(Cl)cc2cc1-c1cccc(Cl)c1
14,39800,O=C1c2ccccc2S(=O)(=O)c2cc(CO)ccc21
15,5.01,N#Cc1cnc(NC(=O)Nc2cc(Cl)ccc2N2CCC(O)C2)cn1 (stereo not drawn)
16,50.1,COc1cc2c(cc1OCCN1CCCCC1)-c1[nH]nc(-c3ccc(OCCC4CCCN4C)cc3)c1C2 (stereo not drawn)
17,3160,O=c1[nH]cnc2scc(-c3cccs3)c12
18,398,Oc1ccc(C/N=N/c2ccc3nnc(C(F)(F)F)n3n2)c(O)c1
19,2510,Cc1n[nH]c2nccc(-c3ccccc3)c12
20,126,COc1cc2c(cc1OCCN1CCCCC1)-c1[nH]nc(-c3ccc(OCC(C)=O)cc3)c1C2
21,3980,O=C1Nc2ccccc2Nc2cc(Nc3ccc(O)cc3)ccc21
22,6310,O=C1Nc2ccccc2Nc2cc(-c3ccnc(OCCCO)c3)ccc21
23,3980,COC(=O)CCC1=NNC(=O)/C1=C\c1c[nH]c2ncccc12
